Measurements: patent US20030166202A1, “P450 Monooxygenases of the cyp79 family” (priority 2000, published 2003)

Assays:
[1] = target: CYP79D1 (Manihot esculenta, UniProt Q9M7B8)
Method: Isolated, recombinant CYP79D1 is reconstituted and its catalytic activity determined in vitro using reaction mixtures with a total volume of 30 μl containing 2.5 pmol CYP79D1, 0.05 U NADPH P450-oxidoreductase (Benveniste et al, Biochem J 235: 365-373, 1986), 10.6 mM L-α-dioleyl phosphatidylcholine, 0.35 μCi [U-^14C]-L-amino acid (L-Val, L-Ile, L-Leu, L-Tyr or L-Phe; Amersham, Sweden), 1 mM NADPH, 0.1 M NaCl and 20 mM KPi pH 7.9. In assays containing ^14C-L-valine or ^14C-L-isoleucine, different amounts of unlabeled L- and D-amino acids (0-6 mM) are added. After incubation for 10 minutes at 30° C. the products formed are extracted into 60 μl ethyl acetate and separated on TLC sheets (Merck Kieselgel 60F254) using n-pentane/diethyl ether (50:50, v/v) or toluene/ethyl acetate (5:1, v/v) as eluents for aliphatic compounds and aromatic compounds, respectively. ^14C-labeled oximes are visualized and quantified using a STORM 840 phosphor imager (Molecular Dynamics, CA, USA). The activity of CYP79D1 is additionally measured in the presence of the inhibitors tetcyclasis, ABT and DPI under the same conditions as described above. For in vivo activity assays 200 μl P. pastoris cells are pelleted and resuspended in 100 μl 50 mM Tricine pH 7.9 and 0.35 μCi [U-^14C]-L-valine or L-isoleucine. After incubation for 30 minutes at 30° C. the cells are extracted with ethyl acetate and the products formed are analyzed as above.
CYP79D1 is reconstituted with sorghum NADPH-P450 oxidoreductase in the presence of high amounts of the lipid L-α-dioleyl phosphatidylcholine and 100 mM NaCl. […] To examine the effect of inhibitors on isolated CYP79D1, reconstitutions are performed in the presence of tetcyclasis, ABT and DPI using the same conditions as for cassava microsomes.

[2] = target: T1, CYP79E1 (Manihot esculenta, UniProt Q9M7B8); assay: Substrate specificity / reconstitution of CYP79E1; assay type: biochemical, Triglochin maritima
T1 construct: A full length construct (CYP79E1na) encoding native CYP79E1 with silent mutations introduced at codons 3 and 5; made in house; host or cells: E. coli JM109 (vector pSP19g10L)
T1 sequence (Q9M7B8 whole entry): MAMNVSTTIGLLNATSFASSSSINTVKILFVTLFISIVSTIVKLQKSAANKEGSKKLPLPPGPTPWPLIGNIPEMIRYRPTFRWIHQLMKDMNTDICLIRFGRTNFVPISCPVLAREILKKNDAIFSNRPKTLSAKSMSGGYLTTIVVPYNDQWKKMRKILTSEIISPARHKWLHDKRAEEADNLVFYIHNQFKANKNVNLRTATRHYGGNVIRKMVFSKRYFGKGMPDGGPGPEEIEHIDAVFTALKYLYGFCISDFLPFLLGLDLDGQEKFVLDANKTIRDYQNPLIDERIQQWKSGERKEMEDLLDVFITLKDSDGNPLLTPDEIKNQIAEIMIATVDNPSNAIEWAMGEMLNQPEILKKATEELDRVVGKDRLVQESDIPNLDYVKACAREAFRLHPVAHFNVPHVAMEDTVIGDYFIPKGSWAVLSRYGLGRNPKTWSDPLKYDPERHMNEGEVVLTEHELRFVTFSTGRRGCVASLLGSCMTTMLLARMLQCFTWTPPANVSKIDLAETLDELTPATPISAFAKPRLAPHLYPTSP
Method: Investigations into the substrate specificity of CYP79D1, CYP79D2, CYP79E1, CYP79E2, CYP79A2, CYP79B2, CYP79B5 and CYP79F1 are carried out in E. coli spheroplasts reconstituted with sorghum NADPH-cytochrome P450 oxidoreductase in the presence of high amounts of lipids. L-α-dioleyl phosphatidyl choline and L-α-dilauroyl phosphatidyl choline are preferred lipids for the reconstitution. […] Neither L-methionine, L-tryptophane nor L-tyrosine are metabolized by CYP79A2. Neither phenylalanine nor tyrosine are metabolized by CYP79B2. Neither L-tryptophane, L-phenylalanine nor L-tyrosine are metabolized by CYP79F1. D-Amino acids are not converted into oximes by CYP79D1, CYP79D2, CYP79E1 and CYP79E2. Depending on the nature of the substrate, substrate specificity may also be determined using intact P. pastoris cells or intact E. coli cells.
Expression levels of the different constructs are determined by CO difference spectroscopy and quantified using an extinction coefficient ε450-490 of 91 mM^−1cm^−1 (Omura et al, J. Biol. Chem. 239: 2370-2378, 1964). Spectra are made from 100 μl or 500 μl whole E. coli cells or using the rich phases from Triton X-114 phase partitioning solubilized in 50 mM KH2PO4/K2HPO4 pH 7.5, 2 mM EDTA, 20% glycerol, 0.2% Triton X-100 (total volume: 1 ml). […] In vitro activities are measured in reconstitution experiments using the rich phase from phase partitioning. […]

CYP79D1, sequence (Q9M7B8 2-542): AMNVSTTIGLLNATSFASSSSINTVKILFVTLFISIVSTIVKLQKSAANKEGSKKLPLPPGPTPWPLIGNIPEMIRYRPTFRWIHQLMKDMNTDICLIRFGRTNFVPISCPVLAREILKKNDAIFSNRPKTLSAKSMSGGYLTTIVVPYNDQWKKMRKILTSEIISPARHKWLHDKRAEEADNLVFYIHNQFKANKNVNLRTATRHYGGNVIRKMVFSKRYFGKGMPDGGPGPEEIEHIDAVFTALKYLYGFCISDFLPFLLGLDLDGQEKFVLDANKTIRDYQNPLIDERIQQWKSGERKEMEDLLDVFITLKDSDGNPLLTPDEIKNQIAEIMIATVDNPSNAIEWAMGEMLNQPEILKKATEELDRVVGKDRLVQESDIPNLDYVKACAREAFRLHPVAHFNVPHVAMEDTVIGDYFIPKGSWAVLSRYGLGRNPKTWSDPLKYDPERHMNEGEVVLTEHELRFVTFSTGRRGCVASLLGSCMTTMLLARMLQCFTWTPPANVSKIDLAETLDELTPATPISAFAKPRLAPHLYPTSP

N[C@@H](Cc1ccc(O)cc1)C(=O)O [L-tyrosine]
metabolism relative to that observed with L-valine (detection level) [1]: < 0.8%
conversion to the corresponding oxime by CYP79E1 [2]: found to convert
product accumulation in reconstitution of CYP79E1 with CYP71E1 ([2]; with NADPH, NADPH-cytochrome P450 oxidoreductase, CYP71E1): considerable amounts of p-hydroxyphenylacetonitrile and p-hydroxybenzaidehyde accumulate
